Laboratory results from patent US20230192617A1, “AZABICYCLIC(THIO)AMIDES AS FUNGICIDAL COMPOUNDS” (Bayer CropScience Aktiengesellschaft, priority 2020, published 2023).

Key:
Pyrenophora teres = assay: B-10. Pyrenophora teres in vitro cell test; type: cell-based; details: 144 h, 20 ppm of active ingredient, 6 days incubation, liquid culture, absorbance, read-out: efficacy (inhibition of fungal growth)
Method in brief: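 Liquid-culture assay on a P. teres spore suspension with compounds added to the medium from DMSO solutions, final DMSO ≤1%. Mycelium growth read spectrometrically after 6 days. Inhibition calculated from absorbance against untreated control wells.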

Botrytis cinerea [1] = assay: In vivo preventive test on Botrytis cinerea (grey mould); details: 500 ppm of active ingredient, preventive spray on gherkin or cabbage, evaluated 4 to 5 days after inoculation, read-out: efficacy
Method in brief: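 Young gherkin or cabbage plants were sprayed with compound in DMSO/acetone/Tween 80 diluted in water, then inoculated 24 hours later with a B. cinerea spore suspension. Incubation lasted 4 to 5 days: gherkin at 17° C., 90% relative humidity; cabbage at 20° C., 100% relative humidity.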

Alternaria brassicae = assay: In vivo preventive test on Alternaria brassicae (leaf spot on radish or cabbage); details: 500 ppm of active ingredient, preventive spray on radish or cabbage, evaluated 3 to 4 days after inoculation, read-out: efficacy
Method in brief: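 Young radish or cabbage plants were sprayed with compound dissolved in DMSO/acetone/Tween 80 and diluted in water; controls received solvent only. Inoculation by spraying A. brassicae spore suspension 24 h later, then 3–4 days at 20 °C and 100% relative humidity.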

[2] = test system: Colletotrichum lindemuthianum; assay: In vivo preventive test on Colletotrichum lindemuthianum (leaf spot on bean); details: 168 h, 500 ppm of active ingredient, preventive spray on bean, evaluated 7 days after inoculation, read-out: efficacy
Method in brief: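 Young bean plants sprayed with compound in DMSO/acetone/Tween 80 diluted in water; solvent-only controls. Inoculated 24 h later with C. lindemuthianum spore suspension, then kept 24 h at 20 °C/100% RH and 6 days at 20 °C/90% RH.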

Sphaerotheca fuliginea = assay: In vivo preventive test on Sphaerotheca fuliginea (powdery mildew on cucurbits); details: Podosphaera fuliginea, 192 h; 500 ppm of active ingredient; preventive spray on gherkin; evaluated 8 days after inoculation; read-out: efficacy
Method in brief: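 Young gherkin plants were sprayed with compound in DMSO/acetone/Tween 80 diluted in water. They were inoculated 24 h later with a spore suspension of Sphaerotheca fuliginea. Plants were then kept for 8 days at 20 °C and 70–80% relative humidity.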

Septoria tritici = assay: B-9. Septoria tritici in vitro cell test; type: cell-based; details: Zymoseptoria tritici, 168 h; 20 ppm of active ingredient; 7 days incubation; liquid culture, absorbance; read-out: efficacy (inhibition of fungal growth)
Method in brief: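 Compounds from DMSO stocks (final DMSO ≤1%) were added to liquid medium containing S. tritici spores to test inhibition of germination and mycelial growth. After 7 days, mycelium growth was read spectrometrically and inhibition derived from absorbance versus fungicide-free control wells.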

Botrytis cinerea [3] = assay: B-11. Botrytis cinerea in vitro cell test; type: cell-based; details: 144 h, 20 ppm of active ingredient, 6 days incubation, liquid culture, absorbance, read-out: efficacy (inhibition of fungal growth)
Method in brief: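 B. cinerea spores were grown in liquid culture with compound (DMSO ≤1% final). Mycelium growth was measured spectrometrically after 6 days, with inhibition taken as absorbance relative to untreated control wells.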

[4] = test system: Colletotrichum lindemuthianum; assay: B-8. Colletotrichum lindemuthianum in vitro cell test; type: cell-based; details: 144 h, 20 ppm of active ingredient, 6 days incubation, liquid culture, absorbance, read-out: efficacy (inhibition of fungal growth)
Method in brief: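 Spore suspension of C. lindemuthianum in liquid medium exposed to DMSO-solubilized compounds (final DMSO ≤1%) for 6 days. Mycelial growth read by absorbance, with inhibition calculated relative to compound-free control wells.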

Compound	inhibition at 20 ppm (Pyrenophora teres) [%]	pest or weed control at 500 ppm (Botrytis cinerea [1]) [%]	pest or weed control at 500 ppm (Alternaria brassicae) [%]	pest or weed control at 500 ppm [2] [%]	pest or weed control at 500 ppm (Sphaerotheca fuliginea) [%]	inhibition at 20 ppm (Septoria tritici) [%]	inhibition at 20 ppm (Botrytis cinerea [3]) [%]	inhibition at 20 ppm [4] [%]
Cc1ccc(C(F)CNC(=O)c2c(Oc3cccc(C4CC4)c3F)nnc3c2CCCC3)c(C)c1 (centres unmarked) [I-137]	90 to 100	90 to 100	90 to 100	90 to 100	90 to 100	70 to 79	90 to 100	90 to 100
O=C(NCC(F)c1ccc(Cl)cc1Cl)c1c(Oc2cccc(C(F)(F)F)c2)nnc2c1COCC2 (centres unmarked) [I-126]	90 to 100	90 to 100	90 to 100	90 to 100	90 to 100	90 to 100	90 to 100	90 to 100
Cc1ccc(C(F)(F)CNC(=O)c2c(Oc3cccc(C(F)F)c3)nnc3c2CCCC3)c(Cl)c1 [I-243]	90 to 100	90 to 100	90 to 100	90 to 100	90 to 100	90 to 100	90 to 100	90 to 100
Cc1ccc2c(C(=O)NCC(F)(F)c3ccc(C)c(C)c3)c(Oc3cccc(C(F)(F)F)c3)nnc2c1 [I-246]	90 to 100	90 to 100	90 to 100	80 to 89	90 to 100	90 to 100	90 to 100	90 to 100
Cc1ccc(C(F)(F)CNC(=O)c2c(Oc3cccc(C4CC4)c3F)nnc3ccccc23)c(C)c1 [I-071, 3-(3-cyclopropyl-2-fluoro-phenoxy)-N-[2-(2,4-dimethyl-phenyl)-2,2-difluoro-ethyl]cinnoline-4-carboxamide]	90 to 100	90 to 100	90 to 100	90 to 100	90 to 100	80 to 89	90 to 100	90 to 100
Cc1ccc(C(F)(F)CNC(=O)c2c(Oc3cccc(C(F)(F)F)c3)nnc3c2COCC3)c(Cl)c1 [I-124]	90 to 100	90 to 100	90 to 100	90 to 100	90 to 100	90 to 100	90 to 100	90 to 100
Cc1cc(Br)ccc1C(F)(F)CNC(=O)c1c(Oc2cccc(C(F)F)c2)nnc2c1CCCC2 [I-150]	90 to 100	90 to 100	90 to 100	90 to 100	90 to 100	90 to 100	90 to 100	90 to 100
Cc1ccc(C(F)(F)CNC(=O)c2c(Oc3cccc(C4CC4)c3F)nnc3c2CCCC3)c(Cl)c1 [I-141]	90 to 100	90 to 100	90 to 100	90 to 100	90 to 100	90 to 100	90 to 100	90 to 100
Cc1ccc(C(F)(F)CNC(=O)c2c(Oc3cccc(Br)c3F)nnc3ccccc23)c(C)c1 [I-227]	90 to 100	90 to 100	90 to 100	80 to 89	90 to 100	70 to 79	90 to 100	90 to 100
Cc1cc(Cl)ccc1C(F)(F)CNC(=O)c1c(Oc2cccc(Cl)c2F)nnc2c1CCC2 [I-148]	90 to 100	90 to 100	90 to 100	90 to 100	90 to 100	80 to 89	90 to 100	80 to 89
Cc1ccc(CCNC(=O)c2c(Oc3cccc(C4CC4)c3F)nnc3ccccc23)c(C)c1 [I-070]	90 to 100	90 to 100	90 to 100	90 to 100	90 to 100	90 to 100	90 to 100	90 to 100
O=C(NCC(F)c1ccc(Cl)cc1Cl)c1c(Oc2cccc(C(F)(F)F)c2)nnc2c1CCCC2 (centres unmarked) [I-118]	90 to 100	90 to 100	90 to 100	90 to 100	90 to 100	90 to 100	90 to 100	90 to 100
Cc1ccc(C(F)(F)CNC(=O)c2c(Oc3cccc(C(F)(F)F)c3)nnc3c2CCC3)c(Cl)c1 [I-142]	90 to 100	90 to 100	90 to 100	90 to 100	90 to 100	90 to 100	90 to 100	90 to 100
O=C(NCC(F)c1ccc(Cl)cc1Cl)c1c(Oc2cccc(C(F)(F)F)c2)nnc2c1CCC2 (centres unmarked) [I-186]	90 to 100	90 to 100	90 to 100	90 to 100	90 to 100	90 to 100	90 to 100	90 to 100
Cc1cc(Br)ccc1C(F)(F)CNC(=O)c1c(Oc2cccc(Cl)c2F)nnc2c1CCCC2 [I-152]	90 to 100	90 to 100	90 to 100	90 to 100	90 to 100	90 to 100	90 to 100	90 to 100
O=C(NCC(F)c1ccc(Cl)cc1Cl)c1c(Oc2cccc(Cl)c2F)nnc2c1CCCC2 (centres unmarked) [I-149]	90 to 100	90 to 100	90 to 100	90 to 100	90 to 100	90 to 100	90 to 100	90 to 100
Cc1cc(Br)ccc1C(F)(F)CNC(=O)c1c(Oc2cccc(Cl)c2)nnc2c1CCCC2 [I-151]	90 to 100	90 to 100	90 to 100	90 to 100	90 to 100	90 to 100	90 to 100	90 to 100
Cc1ccc(C(F)(F)CNC(=O)c2c(Oc3cccc(Cl)c3F)nnc3c2CCC3)c(Cl)c1 [I-143]	90 to 100	90 to 100	90 to 100	90 to 100	90 to 100	90 to 100	90 to 100	90 to 100
Cc1ccc(C(F)(F)CNC(=O)c2c(Oc3cccc(Cl)c3)nnc3c2CCCC3)c(C)c1 [I-121]	90 to 100	90 to 100	90 to 100	90 to 100	90 to 100	90 to 100	90 to 100	90 to 100
